Patent publication US11453666B2, “Autotaxin inhibitory compounds” (Cancer Research Technology Limited, priority 2015, dated 2022)

Molecular target: human recombinant ATX (Homo sapiens, UniProt Q13822)
Assay: Autotaxin (ATX) activity Quanta Red assay
Type: biochemical
Settings: read-out: Activity (ATX activity, Quanta Red assay; IC50)
Summary of the method: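 Recombinant human ATX reaction stopped after 2 h with Quanta Red stop solution; fluorescence read at […]. Controls with DMSO, with and without ATX; IC50 in duplicate.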

Structure (SMILES)	IC50 [nM]
C[C@H](NC(=O)CCc1nc2cccnc2n1Cc1ccc(F)c(F)c1)c1ccc(N2CCCCC2)cc1 [Example 187, 3-[3-(3,4-Difluoro-benzyl)-3H-imidazo[4,5-b]pyridin-2-yl]-N-[(S)-1-(4-piperidin-1-yl-phenyl)-ethyl]-propionamide]	15
C[C@@H]1CN(c2ccc([C@H](C)NC(=O)CCc3nc4cccnc4n3Cc3ccc(F)c(F)c3)cc2)CCN1 [Example 188, 3-[3-(3,4-Difluoro-benzyl)-3H-imidazo[4,5-b]pyridin-2-yl]-N-{(S)-1-[4-((R)-3-methyl-piperazin-1-yl)-phenyl]-ethyl}-propionamide]	15
Cc1cnc2c(c1)nc(CCC(=O)N[C@@H](C)c1ccc(N[C@H]3CCNC3)cc1)n2Cc1ccc(OC(F)(F)F)cc1 [Example 189, 3-[6-Methyl-3-(4-trifluoromethoxy-benzyl)-3H-imidazo[4,5-b]pyridin-2-yl]-N-{(S)-1-[4-((S)-pyrrolidin-3-ylamino)-phenyl]-ethyl}-propionamide]	16
C[C@H](NC(=O)CCc1nc2cccnc2n1Cc1ccc(F)c(F)c1)c1ccc(N2CC[C@@H](O)C2)cc1 [Example 190, 3-[3-(3,4-Difluoro-benzyl)-3H-imidazo[4,5-b]pyridin-2-yl]-N-{(S)-1-[4-((R)-3-hydroxy-pyrrolidin-1-yl)-phenyl]-ethyl}-propionamide]	20
Cc1cnc2c(c1)nc(CCC(=O)N[C@@H](C)c1ccc(N3CCCNCC3)cc1)n2Cc1ccc(OC(F)(F)F)cc1 [Example 191, N-[(S)-1-(4-[1,4]Diazepan-1-yl-phenyl)-ethyl]-3-[6-methyl-3-(4-trifluoromethoxy-benzyl)-3H-imidazo[4,5-b]pyridin-2-yl]-propionamide]	25
Cc1cnc2c(c1)nc(CCC(=O)N[C@@H](C)c1ccc(N3CCN[C@@H](C)C3)cc1)n2Cc1ccc(OC(F)(F)F)cc1 [Example 192, N-{(S)-1-[4-((S)-3-Methyl-piperazin-1-yl)-phenyl]-ethyl}-3-[6-methyl-3-(4-trifluoromethoxy-benzyl)-3H-imidazo[4,5-b]pyridin-2-yl]-propionamide]	56
C[C@H](NC(=O)CCc1nc2cccnc2n1Cc1ccc(F)c(F)c1)c1ccc(N2CCNCC2)cc1 [Example 193, 3-[3-(3,4-Difluoro-benzyl)-3H-imidazo[4,5-b]pyridin-2-yl]-N-[(S)-1-(4-piperazin-1-yl-phenyl)-ethyl]-propionamide]	83
O=C(CCc1nc2cccnc2n1Cc1ccc(OC(F)(F)F)cc1)N[C@@H](C(=O)O)C1CCCCC1 [Example 194, (R)-cyclohexyl-{3-[3-(4-trifluoromethoxy-benzyl)-3H-imidazo[4,5-b]pyridin-2-yl]-propionylamino}-acetic Acid]	1
C[C@H](NC(=O)CCc1nc2cccnc2n1Cc1ccc(F)c(F)c1)c1ccc(CN2CCOCC2)cc1 [Example 206, 3-[3-(3,4-difluoro-benzyl)-3H-imidazo[4,5-b]pyridin-2-yl]-N—[(S)-1-(4-morpholin-4-ylmethyl-phenyl)-ethyl]-propionamide]	3
CCN(CC)Cc1ccc([C@H](C)NC(=O)CCc2nc3cccnc3n2Cc2ccc(F)c(F)c2)cc1 [Example 207, N-[(S)-1-(4-Diethylaminomethyl-phenyl)-ethyl]-3-[3-(3,4-difluoro-benzyl)-3H-imidazo[4,5-b]pyridin-2-yl]-propionamide]	25
C[C@H](NC(=O)CCc1nc2cccnc2n1Cc1ccc(F)c(F)c1)c1ccc(CN(C)C)cc1 [Example 208, 3-[3-(3,4-Difluoro-benzyl)-3H-imidazo[4,5-b]pyridin-2-yl]-N-[(S)-1-(4-dimethylaminomethyl-phenyl)-ethyl]-propionamide]	80

Now from value to molecule:

IC50 [nM]	Structure (SMILES)
1	O=C(CCc1nc2cccnc2n1Cc1ccc(OC(F)(F)F)cc1)N[C@H](Cc1ccccc1)C(=O)O [Example 195, (R)-3-Phenyl-2-{3-[3-(4-trifluoromethoxy-benzyl)-3H-imidazo[4,5-b]pyridin-2-yl]-propionylamino}-propionic acid]
2	O=C(CCc1nc2cccnc2n1Cc1ccc(C(F)(F)F)cc1)N[C@H](Cc1ccccc1)C(=O)O [Example 196, (R)-3-Phenyl-2-{3-[3-(4-trifluoromethyl-benzyl)-3H-imidazo[4,5-b]pyridin-2-yl]-propionylamino}-propionic acid]
5	O=C(CCc1nc2cccnc2n1Cc1ccc(OC(F)F)cc1)N[C@H](Cc1ccccc1)C(=O)O [Example 197, (R)-2-{3-[3-(4-Difluoromethoxy-benzyl)-3H-imidazo[4,5-b]pyridin-2-yl]-propionylamino}-3-phenyl-propionic acid]
37	O=C(CCc1nc2cccnc2n1Cc1ccc(F)c(F)c1)N[C@H](Cc1ccccc1)C(=O)O [Example 198, (R)-2-{3-[3-(3,4-Difluoro-benzyl)-3H-imidazo[4,5-b]pyridin-2-yl]-propionylamino}-3-phenyl-propionic acid]
71	O=C(CCc1nc2cccnc2n1Cc1ccc(OC(F)(F)F)cc1)N[C@@H](Cc1ccccc1)C(=O)O [Example 199, (S)-3-Phenyl-2-{3-[3-(4-trifluoromethoxy-benzyl)-3H-imidazo[4,5-b]pyridin-2-yl]-propionylamino}-propionic acid]
471	O=C(CCc1nc2cccnc2n1Cc1ccc(OC(F)(F)F)cc1)N[C@@H](Cc1ccc(O)cc1)C(=O)O [Example 200, (S)-3-(4-Hydroxy-phenyl)-2-{3-[3-(4-trifluoromethoxy-benzyl)-3H-imidazo[4,5-b]pyridin-2-yl]-propionylamino}-propionic acid]
598	C[C@@H](c1ccc(F)cc1)n1c(CCC(=O)N[C@H](Cc2ccccc2)C(=O)O)nc2cccnc21 [Example 201, (R)-2-(3-{3-[(S)-1-(4-Fluoro-phenyl)-ethyl]-3H-imidazo[4,5-b]pyridin-2-yl}-propionylamino)-3-phenyl-propionic acid]
819	O=C(CCc1nc2cccnc2n1Cc1cccs1)N[C@H](Cc1ccccc1)C(=O)O [Example 202, (R)-3-Phenyl-2-[3-(3-thiophen-2-ylmethyl-3H-imidazo[4,5-b]pyridin-2-yl)-propionylamino]-propionic acid]
2	O=C(CCc1nc2cccnc2n1Cc1ccc(OC(F)(F)F)cc1)N[C@@H](CO)Cc1ccccc1 [Example 203, N—((R)-1-Hydroxymethyl-2-phenyl-ethyl)-3-[3-(4-trifluoromethoxy-benzyl)-3H-imidazo[4,5-b]pyridin-2-yl]-propionamide]
89	O=C(CCc1nc2cccnc2n1Cc1ccc(OC(F)(F)F)cc1)N[C@H](CO)Cc1ccccc1 [Example 204, N-((S)-1-Hydroxymethyl-2-phenyl-ethyl)-3-[3-(4-trifluoromethoxy-benzyl)-3H-imidazo[4,5-b]pyridin-2-yl]-propionamide]
188	O=C(CCc1nc2cccnc2n1Cc1ccc(OC(F)(F)F)cc1)N[C@H](CO)Cc1ccc(O)cc1 [Example 205, N-[(S)-1-Hydroxymethyl-2-(4-hydroxy-phenyl)-ethyl]-3-[3-(4-trifluoromethoxy-benzyl)-3H-imidazo[4,5-b]pyridin-2-yl]-propionamide]
3	O=C(CCc1nc2cccnc2n1Cc1ccc(OC(F)(F)F)cc1)N[C@@H](CS)c1ccccc1 [Example 209, N—((R)-2-mercapto-1-phenyl-ethyl)-3-[3-(4-trifluoromethoxy-benzyl)-3H-imidazo[4,5-b]pyridin-2-yl]-propionamide]
